Assay results: US20130303507A1 (Novartis AG, priority 2011, published 2013)

What follows are compounds tested against Cdk9/cyclinT1 (Homo sapiens, UniProt P50750) (assay: Cdk9/cyclinT1 IMAP protocol (fluorescence polarization)). Details: IC-50, CDK9; lower limit of assay 0.0005 micromolar.
Chain of Cdk9/cyclinT1 (P50750 whole entry): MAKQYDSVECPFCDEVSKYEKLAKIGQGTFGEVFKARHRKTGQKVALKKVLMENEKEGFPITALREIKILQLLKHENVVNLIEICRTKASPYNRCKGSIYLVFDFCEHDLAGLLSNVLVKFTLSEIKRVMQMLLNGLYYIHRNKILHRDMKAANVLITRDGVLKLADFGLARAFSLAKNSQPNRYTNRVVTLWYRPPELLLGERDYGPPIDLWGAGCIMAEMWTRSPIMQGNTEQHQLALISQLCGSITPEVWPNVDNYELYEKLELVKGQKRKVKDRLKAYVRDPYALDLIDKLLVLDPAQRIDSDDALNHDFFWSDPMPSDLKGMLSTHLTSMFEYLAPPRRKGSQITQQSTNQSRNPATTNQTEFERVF
Chain of Cdk9/cyclinT1 (O60563 whole entry partner): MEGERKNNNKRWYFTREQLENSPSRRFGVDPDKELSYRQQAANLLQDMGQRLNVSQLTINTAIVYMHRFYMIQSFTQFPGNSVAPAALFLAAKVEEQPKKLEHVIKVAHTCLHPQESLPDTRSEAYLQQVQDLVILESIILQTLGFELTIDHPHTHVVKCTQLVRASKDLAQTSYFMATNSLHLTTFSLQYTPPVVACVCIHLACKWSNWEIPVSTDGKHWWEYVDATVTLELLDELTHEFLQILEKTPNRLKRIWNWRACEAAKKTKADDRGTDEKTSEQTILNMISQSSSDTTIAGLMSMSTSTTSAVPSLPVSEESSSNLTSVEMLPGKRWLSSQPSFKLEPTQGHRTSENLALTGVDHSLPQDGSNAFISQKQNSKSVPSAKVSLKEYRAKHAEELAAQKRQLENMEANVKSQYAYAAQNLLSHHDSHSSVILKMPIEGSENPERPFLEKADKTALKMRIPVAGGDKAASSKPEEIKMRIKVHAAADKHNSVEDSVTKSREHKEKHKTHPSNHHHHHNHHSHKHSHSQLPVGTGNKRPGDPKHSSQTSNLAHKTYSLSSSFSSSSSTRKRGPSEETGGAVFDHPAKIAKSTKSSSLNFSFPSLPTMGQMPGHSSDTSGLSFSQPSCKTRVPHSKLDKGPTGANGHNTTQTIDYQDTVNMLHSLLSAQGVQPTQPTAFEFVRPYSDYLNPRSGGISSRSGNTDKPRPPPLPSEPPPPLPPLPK

| Compound | IC50 [nM] |
| --- | --- |
| N#CC1(CNc2cccc(-c3cc(N[C@@H]4CC[C@@H](NC5CCOC5)C4)ncc3Cl)n2)CCOCC1 (stereo partly drawn) [Compound 411, 4-(((5′-chloro-2′-(((1R,3R)-3-((tetrahydrofuran-3-yl)amino)cyclopentyl)amino)-[2,4′-bipyridin]-6-yl)amino)methyl)tetrahydro-2H-pyran-4-carbonitrile] | 1.8 |
| COCCO[C@H]1CC[C@H](Nc2cc(-c3cccc(NCC4(C#N)CCOCC4)n3)c(Cl)cn2)CC1 [Compound 415, 4-(((5′-chloro-2′-((trans-4-(2-methoxyethoxy)cyclohexyl)amino)-[2,4′-bipyridin]-6-yl)amino)methyl)tetrahydro-2H-pyran-4-carbonitrile] | 4.9 |
| CC1(C)CN([C@H]2CC[C@H](Nc3cc(-c4cccc(NCC5(C#N)CCOCC5)n4)c(Cl)cn3)CC2)CCO1 [Compound 416, 4-(((5′-chloro-2′-((trans-4-(2,2-dimethylmorpholino)cyclohexyl)amino)-[2,4′-bipyridin]-6-yl)amino)methyl)tetrahydro-2H-pyran-4-carbonitrile] | 21 |
| N#CC1(CNc2cccc(-c3cc(N[C@H]4CC[C@H](N5CCNC(=O)C5)CC4)ncc3Cl)n2)CCOCC1 [Compound 417] | 1.3 |
| N#CC1(CNc2cccc(-c3cc(N[C@H]4CC[C@@H](N5CCNC(=O)C5)CC4)ncc3Cl)n2)CCOCC1 [Compound 418, 4-(((5′-chloro-2′-((cis-4-(3-oxopiperazin-1-yl)cyclohexyl)amino)-[2,4′-bipyridin]-6-yl)amino)methyl)tetrahydro-2H-pyran-4-carbonitrile] | 8.5 |
| CN(C)C(=O)CN(CC(=O)N(C)C)[C@H]1CC[C@H](Nc2cc(-c3cccc(NCC4(C#N)CCOCC4)n3)c(Cl)cn2)CC1 [Compound 421, 2,2′-((trans-4-((5′-chloro-6-(((4-cyanotetrahydro-2H-pyran-4-yl)methyl)amino)-[2,4′-bipyridin]-2′-yl)amino)cyclohexyl)azanediyl) bis(N,N-dimethylacetamide)] | 2.7 |
| CCOC(=O)C(C)(C)NC[C@H]1CC[C@H](Nc2cc(-c3cccc(NCC4(C#N)CCOCC4)n3)c(Cl)cn2)CC1 [Compound 425, ethyl 2-(((trans-4-((5′-chloro-6-(((4-cyanotetrahydro-2H-pyran-4-yl)methyl)amino)-[2,4′-bipyridin]-2′-yl)amino)cyclohexyl)methyl)amino)-2-methylpropanoate] | 1.1 |
| C[C@@H]1CN([C@H]2CC[C@@H](Nc3cc(-c4cccc(NCC5(C#N)CCOCC5)n4)c(Cl)cn3)CC2)C[C@H](C)O1 [Compound 427, 4-(((5′-chloro-2′-((cis-4-((2S,6R)-2,6-dimethylmorpholino)cyclohexyl)amino)-[2,4′-bipyridin]-6-yl)amino)methyl)tetrahydro-2H-pyran-4-carbonitrile] | 8.2 |
| CC(C)(NC[C@H]1CC[C@H](Nc2cc(-c3cccc(NCC4(C#N)CCOCC4)n3)c(Cl)cn2)CC1)C(=O)O [Compound 429, 2-(((trans-4-((5′-chloro-6-(((4-cyanotetrahydro-2H-pyran-4-yl)methyl)amino)-[2,4′-bipyridin]-2′-yl)amino)cyclohexyl)methyl)amino)-2-methylpropanoic acid] | 1.3 |
| CC1(CN[C@H]2CC[C@H](Nc3cc(-c4cccc(NCC5(C#N)CCOCC5)n4)c(Cl)cn3)CC2)COC1 [Compound 430, 4-(((5′-chloro-2′-((trans-4-(((3-methyloxetan-3-yl)methyl)amino)cyclohexyl)amino)-[2,4′-bipyridin]-6-yl)amino)methyl)tetrahydro-2H-pyran-4-carbonitrile] | 1 |
| CC(O)(C(=O)N[C@H]1CC[C@H](Nc2cc(-c3cccc(NCC4(C#N)CCOCC4)n3)c(Cl)cn2)CC1)C(F)(F)F (stereo partly drawn) [Compound 431, N-(trans-4-((5′-chloro-6-(((4-cyanotetrahydro-2H-pyran-4-yl)methyl)amino)-[2,4′-bipyridin]-2′-yl)amino)cyclohexyl)-3,3,3-trifluoro-2-hydroxy-2-methylpropanamide] | 1.7 |
| CC(C)(C)OCCN[C@H]1CC[C@H](Nc2cc(-c3cccc(NCC4(C#N)CCOCC4)n3)c(Cl)cn2)CC1 [Compound 432, 4-(((2′-((trans-4-((2-(tert-butoxy)ethyl)amino)cyclohexyl)amino)-5′-chloro-[2,4′-bipyridin]-6-yl)amino)methyl)tetrahydro-2H-pyran-4-carbonitrile] | < 0.5 |

Second part, the compound after the results:

| IC50 [nM] | Compound |
| --- | --- |
| < 0.5 | N#CC1(CNc2cccc(-c3cc(N[C@H]4CC[C@@H](O)C4)ncc3Cl)n2)CCOCC1 (relative stereo) [Example 404] |
| 0.6 | CC(C)N[C@@H]1CC[C@@H](Nc2cc(-c3cccc(NCC4(C#N)CCOCC4)n3)c(Cl)cn2)C1 (relative stereo) [Example 408] |
| ≤ 0.5 | CO[C@@H]1C[C@@H](Nc2cc(-c3cccc(NCC4(C#N)CCOCC4)n3)c(Cl)cn2)CC[C@@H]1N (single isomer, unassigned) [Compound 435] |
| < 0.5 | CO[C@H]1C[C@H](Nc2cc(-c3cccc(NCC4(C#N)CCOCC4)n3)c(Cl)cn2)CC[C@H]1N (single isomer, unassigned) [Compound 436] |
| < 0.5 | COC[C@@H](C)N[C@H]1CC[C@H](Nc2cc(-c3cccc(NCC4(C#N)CC4)n3)c(Cl)cn2)CC1 [Cmpd 400, 1-(((5′-chloro-2′-((trans-4-(((R)-1-methoxypropan-2-yl)amino)cyclohexyl)amino)-[2,4′-bipyridin]-6-yl)amino)methyl)cyclopropane-carbonitrile] |
| 0.6 | COCCN[C@@H]1CC[C@@H](Nc2cc(-c3cccc(NCC4(C#N)CCOCC4)n3)c(Cl)cn2)C1 [Compound 409, 4-(((5′-chloro-2′-(((1R,3R)-3-((2-methoxyethyl)amino)cyclopentyl)amino)-[2,4′-bipyridin]-6-yl)amino)methyl)tetrahydro-2H-pyran-4-carbonitrile] |
| < 0.5 | N#CC1(CNc2cccc(-c3cc(N[C@@H]4CC[C@@H](NCC5CCCO5)C4)ncc3Cl)n2)CCOCC1 (stereo partly drawn) [Compound 410, 4-(((5′-chloro-2′-(((1R,3R)-3-(((tetrahydrofuran-2-yl)methyl)amino)cyclopentyl)amino)-[2,4′-bypyridin]-6-yl)amino)methyl)tetrahydro-2H-pyran-4-carbonitrile] |
| < 0.5 | CC(C)N[C@H]1CC[C@H](Nc2cc(-c3cccc(NCC4(C#N)CCOCC4)n3)c(Cl)cn2)CC1 [Compound 412, 4-(((5′-chloro-2′-((trans-4-(isopropylamino)cyclohexyl)amino)-[2,4′-bipyridin]-6-yl)amino)methyl)tetrahydro-2H-pyran-4-carbonitrile] |
| < 0.5 | N#CC1(CNc2cccc(-c3cc(NC4CCC(N)CC4)ncc3Cl)n2)CC1 (stereo not drawn) [Compound 413, 1-(((2′-((4-aminocyclohexyl)amino)-5′-chloro-[2,4′-bipyridin]-6-yl)amino)methyl)cyclopropane-carbonitrile] |
| < 0.5 | N#CC1(CNc2cccc(-c3cc(N[C@H]4CC[C@H](NCC5(C#N)CC5)CC4)ncc3Cl)n2)CCOCC1 [Compound 414, 4-(((5′-chloro-2′-((trans-4-(((1-cyanocyclopropyl)methyl)amino)cyclohexyl)amino)-[2,4′-bipyridin]-6-yl)amino)methyl)tetrahydro-2H-pyran-4-carbonitrile] |
| < 0.5 | N#CC1(CNc2cccc(-c3cc(N[C@H]4CC[C@H](NCC(N)=O)CC4)ncc3Cl)n2)CCOCC1 [Compound 419, 2-((trans-4-((5′-chloro-6-(((4-cyanotetrahydro-2H-pyran-4-yl)methyl)amino)-[2,4′-bipyridin]-2′-yl)amino)cyclohexyl)amino) acetamide] |
| < 0.5 | CNC(=O)CN[C@H]1CC[C@H](Nc2cc(-c3cccc(NCC4(C#N)CCOCC4)n3)c(Cl)cn2)CC1 [Compound 420, 2-((trans-4-((5′-chloro-6-(((4-cyanotetrahydro-2H-pyran-4-yl)methyl)amino)-[2,4′-bipyridin]-2′-yl)amino)cyclohexyl)amino)-N-methylacetamide] |
| < 0.5 | CS(=O)(=O)CCN[C@H]1CC[C@H](Nc2cc(-c3cccc(NCC4(C#N)CCOCC4)n3)c(Cl)cn2)CC1 [Compound 422, 4-(((5′-chloro-2′-((trans-4-((2-(methylsulfonyl)ethyl)amino)cyclohexyl)amino)-[2,4′-bipyridin]-6-yl)amino)methyl)tetrahydro-2H-pyran-4-carbonitrile] |
| < 0.5 | CN(C)C(=O)CN[C@H]1CC[C@H](Nc2cc(-c3cccc(NCC4(C#N)CCOCC4)n3)c(Cl)cn2)CC1 [Compound 423, 2-((trans-4-((5′-chloro-6-(((4-cyanotetrahydro-2H-pyran-4-yl)methyl)amino)-[2,4′-bipyridin]-2′-yl)amino)cyclohexyl)amino)-N,N-dimethylacetamide] |
| < 0.5 | N#CC1(CNc2cccc(-c3cc(N[C@H]4CC[C@H](NCCF)CC4)ncc3Cl)n2)CCOCC1 [Compound 424, 4-(((5′-chloro-2′-((trans-4-((2-fluoroethyl)amino)cyclohexyl)amino)-[2,4′-bipyridin]-6-yl)amino)methyl)tetrahydro-2H-pyran-4-carbonitrile] |
| ≤ 0.5 | C[C@@H]1CN([C@H]2CC[C@H](Nc3cc(-c4cccc(NCC5(C#N)CCOCC5)n4)c(Cl)cn3)CC2)C[C@H](C)O1 [Compound 426, 4-(((5′-chloro-2′-((trans-4-((2S,6R)-2,6-dimethylmorpholino)cyclohexyl)amino)-[2,4′-bipyridin]-6-yl)amino)methyl)tetrahydro-2H-pyran-4-carbonitrile] |
| 0.6 | N#CC1(CNc2cccc(-c3cc(N[C@H]4CC[C@H](N5CCCOCC5)CC4)ncc3Cl)n2)CCOCC1 [Compound 428, 4-(((2′-((trans-4-(1,4-oxazepan-4-yl)cyclohexyl)amino)-5′-chloro-[2,4′-bipyridin]-6-yl)amino)methyl)tetrahydro-2H-pyran-4-carbonitrile] |
| 0.6 | N#CC1(CNc2cccc(-c3cc(N[C@H]4CC[C@H](NCCC(F)(F)F)CC4)ncc3Cl)n2)CCOCC1 [Compound 433, 4-(((5′-chloro-2′-((trans-4-((3,3,3-trifluoropropyl)amino)cyclohexyl)amino)-[2,4′-bipyridin]-6-yl)amino)methyl)tetrahydro-2H-pyran-4-carbonitrile] |
